Source: US20260285850A1, “SUBSTITUTED OXAZOLIDINONES AND IMIDAZOLINONES AS HERBICIDES” (FMC CORPORATION, priority 2023, published 2026)

Tests used:
Type in all cases: in vivo
corn (Zea mays) [1] = test: Test A postemergence application, visual injury rating 0-100
Summary of the method: (§1)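 Plants were grown in a loam soil-sand blend and treated with test chemical in a non-phytotoxic solvent mixture containing surfactant, either sprayed on soil preemergence or applied postemergence to 2-10 cm plants. After 10 days in a greenhouse, injury was scored visually against untreated controls, 0 meaning no effect and 100 complete control.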

[2] = test system: horseweed (Erigeron canadensis); test: as above
Summary of the method: as §1

[3] = test system: palmer (palmer amaranth, palmer pigweed, Amaranthus palmeri); test: as above
Summary of the method: as §1

kochia (Bassia scoparia) [4] = test: as above
Summary of the method: as §1

soybean (Glycine max) [5] = test: as above
Summary of the method: as §1

[6] = test system: green foxtail (Setaria viridis); test: as above
Summary of the method: as §1

[7] = test system: galium (catchweed bedstraw, Galium aparine); test: as above
Summary of the method: as §1

[8] = test system: ryegrass, Italian (italian ryegrass, Lolium multiflorum); test: as above
Summary of the method: as §1

[9] = test system: ragweed (common ragweed, Ambrosia artemisiifolia); test: as above
Summary of the method: as §1

[10] = test system: barnyardgrass (Echinochloa crus-galli); test: as above
Summary of the method: as §1

[11] = test system: wheat (Triticum aestivum); test: as above
Summary of the method: as §1

[12] = test system: blackgrass (Alopecurus myosuroides); test: as above
Summary of the method: as §1

[13] = test system: oat, wild (wild oat, Avena fatua); test: as above
Summary of the method: as §1

rice (Oryza sativa) = test: Test B flooded paddy test, visual plant response rating 0-100; details: 250 g ai/ha, Flood, applied to paddy water, evaluated after 13 days
Summary of the method: (§2)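 2-leaf plants; flood 3 cm over soil; compound dosed into paddy water; depth kept constant; greenhouse 13 d; visual scoring vs controls. Dash = no result.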

[14] = test system: ducksalad (Heteranthera limosa); test: as above; details: 250 g ai/ha, Flood, applied to paddy water, evaluated after 13 days
Summary of the method: as §2

[15] = test system: sedge, umbrella (small-flower umbrella sedge, Cyperus difformis); test: as above; details: 250 g ai/ha, Flood, applied to paddy water, evaluated after 13 days
Summary of the method: as §2

[16] = test system: barnyardgrass (Echinochloa crusgalli); test: as above; details: 250 g ai/ha, Flood, applied to paddy water, evaluated after 13 days
Summary of the method: as §2

corn (Zea mays) [17] = test: Test A preemergence soil spray, visual injury rating 0-100; details: 10 days
Summary of the method: as §1

[18] = test system: palmer (palmer amaranth, palmer pigweed, Amaranthus palmeri); test: as above; details: 10 days
Summary of the method: as §1

kochia (Bassia scoparia) [19] = test: as above; details: 10 days
Summary of the method: as §1

soybean (Glycine max) [20] = test: as above; details: 10 days
Summary of the method: as §1

[21] = test system: green foxtail (Setaria viridis); test: as above; details: 10 days
Summary of the method: as §1

[22] = test system: ryegrass, Italian (italian ryegrass, Lolium multiflorum); test: as above; details: 10 days
Summary of the method: as §1

[23] = test system: ragweed (common ragweed, Ambrosia artemisiifolia); test: as above; details: 10 days
Summary of the method: as §1

[24] = test system: barnyardgrass (Echinochloa crus-galli); test: as above; details: 10 days
Summary of the method: as §1

[25] = test system: wheat (Triticum aestivum); test: as above; details: 10 days
Summary of the method: as §1

[26] = test system: blackgrass (Alopecurus myosuroides); test: as above; details: 10 days
Summary of the method: as §1

[27] = test system: oat, wild (wild oat, Avena fatua); test: as above; details: 10 days
Summary of the method: as §1

[28] = 62 g ai/ha, postemergence, 10 days, 0 = no effect, 100 = complete control
[29] = Postemergence, 16 g ai/ha, greenhouse 10 days, 0 no effect, 100 complete control
[30] = 62 g ai/ha, 0 = no effect, 100 = complete control

CC1(C(=O)NC2CC(C(=O)O)C2)CN(c2cc(F)cc(F)c2)C(=O)O1 (stereo not shown) [Compound 119]
20: Pigweed, Palmer plant response rating (0 to 100 scale) [3, 29] | Galium plant response rating (0 to 100 scale) [7, 29] | Ragweed plant response rating (0-100) [9, 28] | Corn plant response rating (corn (Zea mays) [17]; 16 g ai/ha, 0 to 100 scale) | Soybean plant response rating (0-100) (soybean (Glycine max) [20]; [30]) | Foxtail, Green plant response rating ([21]; 16 g ai/ha, 0 to 100 scale)
100: Corn plant response rating (0-100) (corn (Zea mays) [1]; [28]) | Corn plant response rating (0 to 100 scale) (corn (Zea mays) [1]; [29]) | Barnyardgrass plant response rating (0-100) [10, 28] | Blackgrass plant response rating (0-100) [12, 28]
30: Ryegrass, Italian plant response rating ([22]; 16 g ai/ha, 0 to 100 scale)
80: Kochia plant response rating (0-100) (kochia (Bassia scoparia) [4]; [28]) | Soybean plant response rating (0-100) (soybean (Glycine max) [5]; [28]) | Wheat plant response rating (0 to 100 scale) [11, 29] | Blackgrass plant response rating (0 to 100 scale) [12, 29] | Kochia plant response rating (0-100) (kochia (Bassia scoparia) [19]; [30]) | Ryegrass, Italian plant response rating (0-100) [22, 30] | Barnyardgrass plant response rating (0-100) [24, 30] | Blackgrass plant response rating (0-100) [26, 30]
70: Foxtail, Green plant response rating (0 to 100 scale) [6, 29] | Barnyardgrass plant response rating (0 to 100 scale) [10, 29] | Corn plant response rating (0-100) (corn (Zea mays) [17]; [30])
60: Galium plant response rating (0-100) [7, 28] | Ryegrass, Italian plant response rating (0-100) [8, 28] | Wheat plant response rating (0-100) [25, 30]
0: Horseweed plant response rating (0-100) [2, 28] | Horseweed plant response rating (0 to 100 scale) [2, 29] | Ryegrass, Italian plant response rating (0 to 100 scale) [8, 29] | Ragweed plant response rating (0 to 100 scale) [9, 29] | Plant response rating, Rice (0 to 100 scale, 0 is no effect and 100 is complete control) (rice (Oryza sativa)) | Plant response rating, Ducksalad (0 to 100 scale, 0 is no effect and 100 is complete control) [14] | Plant response rating, Sedge, Umbrella (0 to 100 scale, 0 is no effect and 100 is complete control) [15] | Plant response rating, Barnyardgrass (0 to 100 scale, 0 is no effect and 100 is complete control) [16] | Kochia plant response rating (kochia (Bassia scoparia) [19]; 16 g ai/ha, 0 to 100 scale) | Soybean plant response rating (soybean (Glycine max) [20]; 16 g ai/ha, 0 to 100 scale) | Ragweed plant response rating ([23]; 16 g ai/ha, 0 to 100 scale) | Ragweed plant response rating (0-100) [23, 30] | Barnyardgrass plant response rating ([24]; 16 g ai/ha, 0 to 100 scale)
40: Oat, Wild plant response rating (0 to 100 scale) [13, 29] | Blackgrass plant response rating ([26]; 16 g ai/ha, 0 to 100 scale)
90: Foxtail, Green plant response rating (0-100) [6, 28] | Wheat plant response rating (0-100) [11, 28] | Oat, Wild plant response rating (0-100) [13, 28] | Foxtail, Green plant response rating (0-100) [21, 30] | Oat, Wild plant response rating ([27]; 16 g ai/ha, 0 to 100 scale) | Oat, Wild plant response rating (0-100) [27, 30]
10: Kochia plant response rating (0 to 100 scale) (kochia (Bassia scoparia) [4]; [29]) | Pigweed, Palmer plant response rating ([18]; 16 g ai/ha, 0 to 100 scale) | Pigweed, Palmer plant response rating (0-100) [18, 30] | Wheat plant response rating ([25]; 16 g ai/ha, 0 to 100 scale)
50: Pigweed, Palmer plant response rating (0-100) [3, 28] | Soybean plant response rating (0 to 100 scale) (soybean (Glycine max) [5]; [29])
